# Results from patent publication US20170319572A1, “COMBINATION DRUG TREATMENT FOR HEPATITIS C INFECTION” (JANSSEN PHARMACEUTICALS, INC., priority 2015, published 2017).
# Entries after “also recorded” stand apart in the source; their conditions may differ.
# Key:
# [1] = Drug-drug interaction study in humans (Phase-1, open-label, two-group, fixed-sequence, PK); conditions: for increase of exposure caused by Odalasvir: co-administration of Odalasvir; for increase of exposure caused by SMV: co-administration of SMV
# Experimental: A drug-drug interaction study (DDI) study is a study designed to investigate whether a drug alters the pharmacokinetics of another drug or drugs or their metabolites.
# Compound (III)—Subjects received 800 mg of Compound (III) once daily from Days 1-3, Days 11-13, and Days 21-23. PK blood samples for determination of Compound (III) and metabolite concentrations were collected in reference to the Day 3, Day 13, and Day 23 doses.
# Simeprevir—Subjects received 150 mg of Simeprevir (SMV) once daily from Days 4-23. PK blood samples for determination of SMV concentrations were collected in reference to the Day 10, Day 13, Day 20, and Day 23 doses.
# Odalasvir—Subjects received a loading dose of 150 mg on Day 14, and 50 mg of Odalasvir once daily from Days 15-23. PK blood samples for determination of Odalasvir concentrations were collected in reference to the Day 20 and Day 23 doses.
# Compound (III)—Subjects received 800 mg of Compound (III) once daily from Days 1-3, Days 11-13 and Days 21-23. PK blood samples for determination of Compound (III) and metabolite concentrations were collected in reference to the Day 3, Day 13, and Day 23 doses.
# Simeprevir—Subjects receive 150 mg of SMV once daily from Days 4-23. PK blood samples for determination of SMV concentrations were collected in reference to the Day 20 and Day 23 doses.
# Odalasvir—Subjects receive a loading dose of 150 mg on Day 4, and 50 mg of Odalasvir once daily from Days 5-23. PK blood samples for determination of Odalasvir concentrations were collected in reference to the Day 10, Day 13, Day 20, and Day 23 doses.
# This drug-drug interaction study was intended to assess the safety and tolerability of the described drug combinations at pre-defined time points throughout the study. Study completion/follow-up visit(s) were performed 7 and 28 days after completion of the last study assessment.
# A primary objective was to evaluate the effect of multiple oral doses of Odalasvir (alone), Simeprevir (alone), and Odalasvir and Simeprevir on the multiple oral dose PK of Compound (III) (and certain metabolites thereof, such as the major metabolites in systemic circulation) in healthy volunteers. Other objectives were to evaluate the safety and tolerability of multiple oral doses of Compound (III) when administered alone and in combination with single and multiple oral doses of Odalasvir and/or Simeprevir in healthy volunteers; to determine the potential effect of Compound of Compound (III) and/or Odalasvir on the steady-state PK of Simeprevir in healthy volunteers; to determine the potential effect of Compound of Compound (III) and/or Simeprevir on the steady state PK of Odalasvir in healthy volunteers.
# Various other PK parameters were estimated including: Clast, t1/2, Tmax, Tlast, CL/F, Vz/F, and λz.
# The following daily doses were employed:
# Odalasvir: 150 mg loading dose; 50 mg for the remainder of the study period.
# [2] = Phase 2a open-label combination study, pharmacokinetics and safety; type: in vivo, human; conditions: for change of exposure on reducing SMV dosing from 100 mg to 75 mg QD: in vivo
# Experimental: A randomized, Phase 2a, open-label study was carried out to evaluate the safety, pharmacokinetics and efficacy of the combination of Compound (III), Odalasvir and Simeprevir in Genotype 1 treatment-naïve subjects with chronic hepatitis C. Other treatment-naïve subjects included Genotype 2, 3, 4, 5 and 6. The aim of the study was to determine the efficacy, pharmacokinetics (PK), and safety of Compound (III)+Odalasvir±SMV in HCV-infected subjects. […] Efficacy, PK and safety evaluations were conducted during and through 24 weeks post dosing. Up to 15 cohorts were enrolled; data was generated from cohorts that have completed dosing.
# [3] = SMV co-administered with Digoxin (a pgp-substrate); cited from earlier work
# [4] = SMV co-administered with Rosuvastatin (substrate of OATPs & BCRP); cited from earlier work
# CYP (any CYP) = experiment: CYP inhibition; conditions: on any CYP
# NTCP = conditions: printed: other OATPs NTCP; read-out: NTCP inhibition IC50; cited from earlier work
# Pgp = Pgp (Homo sapiens, UniProt P08183); conditions: cited from earlier work
# Chain of Pgp (P08183 whole entry): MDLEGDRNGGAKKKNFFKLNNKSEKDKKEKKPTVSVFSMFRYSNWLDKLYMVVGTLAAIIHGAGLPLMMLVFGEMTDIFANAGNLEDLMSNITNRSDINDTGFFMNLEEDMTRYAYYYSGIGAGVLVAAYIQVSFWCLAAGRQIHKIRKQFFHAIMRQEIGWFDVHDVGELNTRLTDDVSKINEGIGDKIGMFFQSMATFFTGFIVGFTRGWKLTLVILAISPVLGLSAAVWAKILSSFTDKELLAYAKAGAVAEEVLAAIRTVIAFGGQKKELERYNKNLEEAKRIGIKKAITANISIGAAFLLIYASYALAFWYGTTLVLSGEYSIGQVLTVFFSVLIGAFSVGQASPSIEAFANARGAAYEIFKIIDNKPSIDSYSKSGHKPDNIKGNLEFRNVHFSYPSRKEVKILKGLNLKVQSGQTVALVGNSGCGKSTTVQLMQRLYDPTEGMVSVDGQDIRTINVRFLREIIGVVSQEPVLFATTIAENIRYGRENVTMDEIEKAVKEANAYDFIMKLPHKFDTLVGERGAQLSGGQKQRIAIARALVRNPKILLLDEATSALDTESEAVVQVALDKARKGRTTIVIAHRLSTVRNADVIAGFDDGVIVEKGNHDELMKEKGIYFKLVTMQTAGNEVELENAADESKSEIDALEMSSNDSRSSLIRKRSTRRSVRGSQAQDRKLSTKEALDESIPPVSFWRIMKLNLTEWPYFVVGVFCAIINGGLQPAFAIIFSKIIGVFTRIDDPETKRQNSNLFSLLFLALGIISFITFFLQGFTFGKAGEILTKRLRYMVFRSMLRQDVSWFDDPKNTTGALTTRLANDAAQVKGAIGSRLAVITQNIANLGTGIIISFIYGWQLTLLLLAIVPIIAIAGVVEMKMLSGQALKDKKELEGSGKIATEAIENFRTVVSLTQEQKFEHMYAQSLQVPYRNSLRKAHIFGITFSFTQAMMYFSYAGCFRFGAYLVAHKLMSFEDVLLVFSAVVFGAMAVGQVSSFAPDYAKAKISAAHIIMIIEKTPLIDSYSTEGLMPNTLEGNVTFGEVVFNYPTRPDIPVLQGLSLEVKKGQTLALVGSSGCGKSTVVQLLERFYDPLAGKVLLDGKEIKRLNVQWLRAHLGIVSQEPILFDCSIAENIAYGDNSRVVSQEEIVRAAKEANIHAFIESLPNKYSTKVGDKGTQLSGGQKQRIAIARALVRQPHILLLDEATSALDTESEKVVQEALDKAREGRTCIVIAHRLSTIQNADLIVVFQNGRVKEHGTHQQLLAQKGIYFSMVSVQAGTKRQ
increase of exposure caused by Odalasvir ([1]; DDI study),increase of exposure caused by SMV ([1]; DDI study),"increase of exposure, effect of the three Compounds ([1]; DDI study, Compound (III) + SMV + Odalasvir together)","increase of exposure in the combination ([1]; human in vivo study (Example 1), three drugs combined)",increase of bioavailability by ODV ([1]; human subjects),CYP inhibition potential (CYP (any CYP)),Structure (SMILES),change of exposure on increasing Compound (III) dose from 400 to 800 mg ([2]; HCV patients),increase in exposure of Digoxin [3],increase in Rosuvastatin exposure [4],"effect of Compound (III) on exposure/bioavailability ([1]; DDI study, co-administration of Compound (III))","observed exposure in Cohort 1 / group (i) ([2]; Compound (III) 400 mg, ODV 50 mg QD, SMV 100 mg QD)",change of exposure on reducing SMV dosing from 100 mg to 75 mg QD [2],change of exposure on reducing SMV dosing from 100 mg to 75 mg QD ([2]; listed as Simeprevir),IC50 (NTCP),in vitro inhibition of Pgp (Pgp)
1.5 ×,no apparent effect,–,–,–,–,C[C@]1(O)[C@H](n2ccc(=O)[nH]c2=O)O[C@](F)(CO)[C@H]1O [Compound A-1],less than proportionally,–,–,–,–,–,–,–,–
2.6 ×,1.6 ×,–,–,–,–,C[C@H](NP(=O)(O)OC[C@@]1(F)O[C@@H](n2ccc(=O)[nH]c2=O)[C@](C)(O)[C@@H]1O)C(=O)O [Compound A-3],–,–,–,–,–,–,–,–,–
1.6 ×,–,1.6 ×,1.6 times,1.6 fold,limited,"COc1ccc2c(O[C@@H]3C[C@H]4C(=O)N[C@]5(C(=O)NS(=O)(=O)C6CC6)C[C@H]5/C=C\CCCCN(C)C(=O)[C@@H]4C3)cc(-c3nc(C(C)C)cs3)nc2c1C [SMV, Simeprevir, reference compound]",–,35%,3 fold,no apparent effect; also recorded: does not alter the bioavailability,higher than anticipated,decreased SMV exposure less than proportionally,decreased Simeprevir exposure less than proportionally,2200 nM,strong/moderate in vitro inhibition
